Measured values as given in ChEMBL document CHEMBL4483862, “Open-source discovery of chemical leads for next-generation chemoprotective antimalarials” (2018).

System: Plasmodium berghei
Test: Luciferase/luciferin-expressing antifolate-resistant parasites were used to infect a culture of HepG2 cells that were pre-incubated with compounds. Infected hepatocytes emit light due to the luciferase reaction. Assay results are presented as the percent inhibition of light emission compared to control. […]
Type: functional
Conditions: sporozoite; for IC90: read-out: LUCIFERASE INFECTION ASSAY - IC90
[1] = read-out: LUCIFERASE INFECTION ASSAY - IC50

Row | SMILES | IC90 [µM] | IC50 [1] [µM] | also measured
1 | CC(C)NC(=S)N/N=C1\C(=O)Nc2ccc(C(C)C)cc21 | 4.02 | – | IC50 (FFLUC_HILL_SLOPE 3.36, FFLUC_R_SQUARED 0.392, HEPG2TOX_HILL_SLOPE 1.41, HEPG2TOX_R_SQUARED 0.93, PBLUC_HILL_SLOPE 4.04, PBLUC_R_SQUARED 0.837, read-out: LUCIFERASE INFECTION ASSAY - IC50): 2.33 µM
2 | CC(C)CCn1c(=O)c2ccccc2n2c(SCCS(=O)(=O)c3ccc(Cl)cc3)nnc12 | > 10 | – | IC50 (HEPG2TOX_HILL_SLOPE 1.35, HEPG2TOX_R_SQUARED 0.511, PBLUC_HILL_SLOPE 2.98, PBLUC_R_SQUARED 0.427, read-out: LUCIFERASE INFECTION ASSAY - IC50): 7.28 µM
3 | O=C(CN1CCN(CC(=O)N(Cc2ccccc2)Cc2ccccc2)CC1)Nc1ccc(Cl)c(C(F)(F)F)c1 | > 10 | – | IC50 (PBLUC_HILL_SLOPE 18.3, PBLUC_R_SQUARED 0.38, read-out: LUCIFERASE INFECTION ASSAY - IC50): 9.55 µM
4 | CC(C)(C)NC(=S)N/N=C/c1cccc(O)c1O | > 12.3 | > 12.3 | –
5 | CCNC(=O)c1nn(Cc2cccc(OC)c2)c2c1CN(CCC(C)c1ccc(C)o1)CC2 (stereo not drawn) | > 7.32 | – | IC50 (PBLUC_HILL_SLOPE 5.04, PBLUC_R_SQUARED 0.686, read-out: LUCIFERASE INFECTION ASSAY - IC50): 6.68 µM
6 | CCN(CC)c1ccc(NC(=O)c2ccc(C)cc2)c(N(CC)CC)n1 | > 9.31 | > 9.31 | –
7 | O=C(c1ccco1)N1CCc2nc(NCc3cccc(Oc4ccccc4)c3)ncc2C1 | 2.99 | – | IC50 (HEPG2TOX_HILL_SLOPE 1.64, HEPG2TOX_R_SQUARED 0.989, PBLUC_HILL_SLOPE 13.2, PBLUC_R_SQUARED 0.473, read-out: LUCIFERASE INFECTION ASSAY - IC50): 2.53 µM
8 | CN1CCN(c2ccc(-c3cn4c(-c5ccc(CO)cc5)cnc4cn3)cc2)CC1 | > 8.26 | – | IC50 (PBLUC_HILL_SLOPE 2.22, PBLUC_R_SQUARED 0.0391, read-out: LUCIFERASE INFECTION ASSAY - IC50): > 8.26 µM
9 | O=c1nc(/C=C/c2cccc3cccnc23)[nH]c2sc3c(c12)CCCCC3 | > 10 | > 10 | –
10 | CN1CCN(c2ccc(NC(=O)c3c[nH]c4ccc(Br)cc34)cn2)CC1 | > 10 | – | IC50 (PBLUC_HILL_SLOPE 3.31, PBLUC_R_SQUARED 0.596, read-out: LUCIFERASE INFECTION ASSAY - IC50): 8.19 µM
11 | CCCCCCCCCCCc1nnc(SCc2ccc(C)cc2)n1-c1ccccc1C(F)(F)F | > 6.55 | > 6.55 | –
12 | O=C(O)c1c(CN2CCN(c3ccccc3)CC2)c(O)c2ccccc2c1O | 8.28 | – | IC50 (HEPG2TOX_HILL_SLOPE 4.36, HEPG2TOX_R_SQUARED 0.83, PBLUC_HILL_SLOPE 4.96, PBLUC_R_SQUARED 0.0239, read-out: LUCIFERASE INFECTION ASSAY - IC50): 5.31 µM
13 | C/N=c1\scc(-c2ccc(OC(F)F)cc2)n1/N=C/c1ccccc1[N+](=O)[O-] | > 10 | > 10 | –
14 | CCN(CC)Cc1nc(N2CCN(Cc3c(C)nc4ccc(C)cn34)CC2)c2c(C)c(C)sc2n1 | > 10 | – | IC50 (PBLUC_HILL_SLOPE 1.28, PBLUC_R_SQUARED 0.354, read-out: LUCIFERASE INFECTION ASSAY - IC50): 5.6 µM
15 | CC(=O)N1CCN(C(=O)CCC(=O)Nc2nc3ccccc3s2)CC1 | > 10 | – | IC50 (PBLUC_HILL_SLOPE 1.05, PBLUC_R_SQUARED 0.239, read-out: LUCIFERASE INFECTION ASSAY - IC50): > 10 µM
16 | O=C(Nc1nc(-c2c[nH]c3ccccc23)cs1)c1coc(Br)c1 | > 10 | > 10 | –
17 | CCOC(=O)c1c(C)[nH]c(C(=O)C(C)OC(=O)c2n[nH]c(=O)c3ccccc23)c1C (stereo not drawn) | > 10 | – | IC50 (HEPG2TOX_HILL_SLOPE 1.25, HEPG2TOX_R_SQUARED 0.561, read-out: LUCIFERASE INFECTION ASSAY - IC50): > 10 µM
18 | O=C(Nc1nonc1-c1ccc(F)cc1)c1ccc(Br)cc1 | 3.92 | – | IC50 (HEPG2TOX_HILL_SLOPE 9.79, HEPG2TOX_R_SQUARED 0.939, PBLUC_HILL_SLOPE 11.2, PBLUC_R_SQUARED 0.415, read-out: LUCIFERASE INFECTION ASSAY - IC50): 3.22 µM
19 | O=C(CCc1cccnc1)Nc1ccc(OC(F)(F)F)cc1 | > 10 | > 10 | –
20 | c1ccc(C(Nc2ncnc3sccc23)c2ccco2)cc1 (stereo not drawn) | > 10 | – | IC50 (PBLUC_HILL_SLOPE 17.3, PBLUC_R_SQUARED 0.0145, read-out: LUCIFERASE INFECTION ASSAY - IC50): 8.98 µM
21 | CCOC(=O)c1sc2c(c1C)C(c1ccccc1)C1C(=O)CC(C)(C)CC1=N2 (stereo not drawn) | 4.4 | 1.87 | –
22 | CCOc1ccc(OCC)c(NC(=O)/C=C/c2ccc(OCc3cn4ccccc4n3)cc2)c1 | > 10 | – | IC50 (PBLUC_HILL_SLOPE 4.17, PBLUC_R_SQUARED 0.3, read-out: LUCIFERASE INFECTION ASSAY - IC50): 8.87 µM

Row | SMILES | IC90 [µM] | IC50 [1] [µM] | also measured
23 | CC(NC(=O)c1ccccc1NC(=O)CSc1ccc2c3c(cccc13)CC2)c1ccccc1 (stereo not drawn) | > 10 | – | IC50 (FFLUC_HILL_SLOPE 9.73, FFLUC_R_SQUARED 0.624, HEPG2TOX_HILL_SLOPE 6.39, HEPG2TOX_R_SQUARED 0.223, read-out: LUCIFERASE INFECTION ASSAY - IC50): > 10 µM
24 | Cc1ccccc1C(=O)/C=c1\s/c(=C\c2ccc(O)cc2)c(=O)n1C | > 10 | > 10 | –
25 | Cc1ccc(NC(=O)Cn2nnc(-c3ccccc3)n2)cc1S(=O)(=O)N1CCCCCC1 | > 10 | – | IC50 (HEPG2TOX_HILL_SLOPE 11.8, HEPG2TOX_R_SQUARED 0.86, PBLUC_HILL_SLOPE 22, PBLUC_R_SQUARED 0.334, read-out: LUCIFERASE INFECTION ASSAY - IC50): 9.07 µM
26 | O=C(NC(=S)NN(Cc1ccccc1)c1ccccc1)C12CC3CC(CC(C3)C1)C2 | > 10 | > 10 | –
27 | O=C1c2ccccc2C(O)(C#Cc2ccccc2)N1c1ccccc1 (stereo not drawn) | 8.45 | – | IC50 (HEPG2TOX_HILL_SLOPE 4.52, HEPG2TOX_R_SQUARED 0.977, PBLUC_HILL_SLOPE 3.23, PBLUC_R_SQUARED 0.385, read-out: LUCIFERASE INFECTION ASSAY - IC50): 4.28 µM
28 | COc1cc(-c2cn3c(-c4ccc5ncccc5c4)cnc3cn2)ccc1O | 4.57 | – | IC50 (HEPG2TOX_HILL_SLOPE 2.88, HEPG2TOX_R_SQUARED 0.967, PBLUC_HILL_SLOPE 7.35, PBLUC_R_SQUARED 0.638, read-out: LUCIFERASE INFECTION ASSAY - IC50): 3.39 µM
29 | COc1ccc(CC(N)c2csc(NC(=O)C(c3ccccc3)c3ccccc3)n2)cc1 (stereo not drawn) | 5.8 | – | IC50 (HEPG2TOX_HILL_SLOPE 15.4, HEPG2TOX_R_SQUARED 0.86, PBLUC_HILL_SLOPE 4.59, PBLUC_R_SQUARED 0.756, read-out: LUCIFERASE INFECTION ASSAY - IC50): 3.59 µM
30 | CSc1nc2ccccc2c(=O)n1-c1c(C)cccc1C | > 11.1 | – | IC50 (PBLUC_HILL_SLOPE 11.2, PBLUC_R_SQUARED 0.357, read-out: LUCIFERASE INFECTION ASSAY - IC50): 10.5 µM
31 | Cc1ccc(F)c(Nc2ncnc3sccc23)c1 | > 10 | > 10 | –
32 | Cc1cc(C(=O)CSc2nc3ccccc3[nH]2)c(C)n1CC1CCCO1 (stereo not drawn) | 4.43 | – | IC50 (HEPG2TOX_HILL_SLOPE 3.03, HEPG2TOX_R_SQUARED 0.337, PBLUC_HILL_SLOPE 0.528, 1.10, PBLUC_R_SQUARED 0.856, 0.809, read-out: LUCIFERASE INFECTION ASSAY - IC50): 0.144 µM
33 | O=C1C=CC(=O)N1c1ccc(Cl)cc1 | > 15.9 | – | IC50 (FFLUC_HILL_SLOPE 21.9, FFLUC_R_SQUARED 0.305, PBLUC_HILL_SLOPE 2.09, PBLUC_R_SQUARED 0.529, read-out: LUCIFERASE INFECTION ASSAY - IC50): 12.2 µM
34 | Cc1cc(Nc2cccc(C(F)(F)F)c2)n2ncc(C#N)c2n1 | 3.35 | – | IC50 (HEPG2TOX_HILL_SLOPE 1.43, HEPG2TOX_R_SQUARED 0.906, PBLUC_HILL_SLOPE 4.64, PBLUC_R_SQUARED 0.533, read-out: LUCIFERASE INFECTION ASSAY - IC50): 2.09 µM
35 | Clc1cc(Cl)cc(-c2nnc(Sc3nc(-c4cccs4)ns3)[nH]2)c1 | > 8 | > 8 | –
36 | COc1ccc(-c2cnc3cnc(-c4ccc(OC)nc4)cn23)cc1 | 8.79 | – | IC50 (HEPG2TOX_HILL_SLOPE 10.4, HEPG2TOX_R_SQUARED 0.778, PBLUC_HILL_SLOPE 1.98, PBLUC_R_SQUARED 0.81, read-out: LUCIFERASE INFECTION ASSAY - IC50): 2.91 µM
37 | FC(F)Oc1ccc(NC(=S)NNC(=S)Nc2ccc(Cl)cc2)cc1 | 4.51 | – | IC50 (HEPG2TOX_HILL_SLOPE 2.66, HEPG2TOX_R_SQUARED 0.926, PBLUC_HILL_SLOPE 1.61, PBLUC_R_SQUARED 0.703, read-out: LUCIFERASE INFECTION ASSAY - IC50): 1.16 µM
38 | CS(=O)(=O)N1CCCC(C(=O)NC(c2ccccc2)C2CCCCC2)C1 (stereo not drawn) | > 10 | > 10 | –
39 | CNC(=O)c1ccc(/C=C/C(=O)N(c2ccc(C)c(F)c2)c2nc3ccccc3s2)cc1 | 8.92 | – | IC50 (FFLUC_HILL_SLOPE 1.49, FFLUC_R_SQUARED 0.0757, PBLUC_HILL_SLOPE 4.44, PBLUC_R_SQUARED 0.348, read-out: LUCIFERASE INFECTION ASSAY - IC50): 5.44 µM
40 | CC(=O)N(/N=C/c1ccc(Cl)cc1)C1=NN(C(C)=O)C(c2ccc(Cl)cc2)S1 (stereo not drawn) | > 7.58 | > 7.58 | –
41 | O=C(NNC(=O)c1cc(F)c(F)c(F)c1F)c1ccc(COc2cccc3cccnc23)cc1 | > 10 | > 10 | –
42 | CC(C)c1ccc(-c2cnc3sc(NCCCO)nn23)cc1 | > 10.4 | > 10.4 | –
43 | N#Cc1cc(-c2nc(-c3ccccc3)cs2)c(N)[nH]c1=S | > 10 | – | IC50 (PBLUC_HILL_SLOPE 3, PBLUC_R_SQUARED 0.293, read-out: LUCIFERASE INFECTION ASSAY - IC50): 6.32 µM
44 | Cn1nc(C(C)(C)C)cc1C(=O)Nc1ccc2nc(-c3cccs3)nn2c1 | > 10 | > 10 | –
